ChEMBL document CHEMBL1142528 (J Med Chem, 2008)

What was measured:
[1] = molecular target: 5-hydroxytryptamine receptor 2A (Homo sapiens, UniProt P28223); assay: Displacement of [3H]ketanserin from 5HT2A receptor expressed in NIH3T3 cells; type: cell-based
[2] = molecular target: 5-hydroxytryptamine receptor 2A (Homo sapiens, UniProt P28223, F340L); assay: Displacement of [3H]ketanserein from 5HT2A receptor F340L mutant expressed in NIH3T3 cells; type: cell-based
D(2) dopamine receptor = D(2) dopamine receptor (Homo sapiens, UniProt P14416); assay: Displacement of [3H]spiperone from dopamine D2 receptor
Sequence of D(2) dopamine receptor (P14416 whole entry): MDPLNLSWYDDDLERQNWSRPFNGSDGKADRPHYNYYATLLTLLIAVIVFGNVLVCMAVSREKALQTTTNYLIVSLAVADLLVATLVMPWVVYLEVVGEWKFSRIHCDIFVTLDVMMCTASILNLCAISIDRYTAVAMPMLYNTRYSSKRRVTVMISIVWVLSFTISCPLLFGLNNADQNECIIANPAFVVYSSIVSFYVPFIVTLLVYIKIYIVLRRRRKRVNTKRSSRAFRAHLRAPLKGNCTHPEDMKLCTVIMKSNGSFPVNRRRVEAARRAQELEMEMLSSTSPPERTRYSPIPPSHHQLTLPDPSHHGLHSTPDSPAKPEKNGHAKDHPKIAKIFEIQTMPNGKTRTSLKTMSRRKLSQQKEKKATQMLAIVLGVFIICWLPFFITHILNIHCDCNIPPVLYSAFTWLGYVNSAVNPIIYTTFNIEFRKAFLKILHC

[3] = molecular target: Sodium-dependent serotonin transporter (Homo sapiens, UniProt P31645); assay: Displacement of [3H]paroxitine from SERT
Sequence of Sodium-dependent serotonin transporter (P31645 whole entry): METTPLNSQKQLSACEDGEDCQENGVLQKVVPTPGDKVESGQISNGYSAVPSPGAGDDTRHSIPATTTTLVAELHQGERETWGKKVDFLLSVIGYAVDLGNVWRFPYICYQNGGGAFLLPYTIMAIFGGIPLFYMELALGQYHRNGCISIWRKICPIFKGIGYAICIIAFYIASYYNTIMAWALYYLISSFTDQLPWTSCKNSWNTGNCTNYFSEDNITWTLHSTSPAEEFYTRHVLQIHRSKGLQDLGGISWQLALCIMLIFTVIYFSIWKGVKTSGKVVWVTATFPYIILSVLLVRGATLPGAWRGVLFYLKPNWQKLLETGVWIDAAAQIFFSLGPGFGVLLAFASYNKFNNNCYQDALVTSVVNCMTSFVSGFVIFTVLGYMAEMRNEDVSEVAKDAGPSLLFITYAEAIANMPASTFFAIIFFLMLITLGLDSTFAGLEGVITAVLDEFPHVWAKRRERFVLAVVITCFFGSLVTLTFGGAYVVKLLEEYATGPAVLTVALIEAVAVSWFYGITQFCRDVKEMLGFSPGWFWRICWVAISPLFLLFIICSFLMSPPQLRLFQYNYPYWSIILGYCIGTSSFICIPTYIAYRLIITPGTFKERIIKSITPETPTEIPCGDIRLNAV

[4] = molecular target: T1, 5-hydroxytryptamine receptor 2C (Homo sapiens, UniProt P28335); assay: Displacement of [3H]mesulergine from 5HT2C receptor
T1 sequence (P28335 whole entry): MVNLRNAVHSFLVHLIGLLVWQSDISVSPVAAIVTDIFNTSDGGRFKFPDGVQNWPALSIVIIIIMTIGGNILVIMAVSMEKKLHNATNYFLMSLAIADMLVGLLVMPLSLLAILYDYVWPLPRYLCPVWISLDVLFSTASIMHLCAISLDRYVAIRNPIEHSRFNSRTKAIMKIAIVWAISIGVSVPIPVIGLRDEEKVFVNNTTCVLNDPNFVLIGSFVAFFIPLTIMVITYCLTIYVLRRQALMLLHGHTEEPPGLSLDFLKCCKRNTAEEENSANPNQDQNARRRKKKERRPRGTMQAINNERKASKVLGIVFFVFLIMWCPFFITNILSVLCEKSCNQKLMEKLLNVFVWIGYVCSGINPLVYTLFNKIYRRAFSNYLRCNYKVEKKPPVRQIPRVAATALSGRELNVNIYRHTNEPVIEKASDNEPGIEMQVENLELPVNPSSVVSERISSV

[5] = molecular target: Sodium-dependent noradrenaline transporter (Homo sapiens, UniProt P23975); assay: Displacement of [3H]nisoxitine from NET
Sequence of Sodium-dependent noradrenaline transporter (P23975 whole entry): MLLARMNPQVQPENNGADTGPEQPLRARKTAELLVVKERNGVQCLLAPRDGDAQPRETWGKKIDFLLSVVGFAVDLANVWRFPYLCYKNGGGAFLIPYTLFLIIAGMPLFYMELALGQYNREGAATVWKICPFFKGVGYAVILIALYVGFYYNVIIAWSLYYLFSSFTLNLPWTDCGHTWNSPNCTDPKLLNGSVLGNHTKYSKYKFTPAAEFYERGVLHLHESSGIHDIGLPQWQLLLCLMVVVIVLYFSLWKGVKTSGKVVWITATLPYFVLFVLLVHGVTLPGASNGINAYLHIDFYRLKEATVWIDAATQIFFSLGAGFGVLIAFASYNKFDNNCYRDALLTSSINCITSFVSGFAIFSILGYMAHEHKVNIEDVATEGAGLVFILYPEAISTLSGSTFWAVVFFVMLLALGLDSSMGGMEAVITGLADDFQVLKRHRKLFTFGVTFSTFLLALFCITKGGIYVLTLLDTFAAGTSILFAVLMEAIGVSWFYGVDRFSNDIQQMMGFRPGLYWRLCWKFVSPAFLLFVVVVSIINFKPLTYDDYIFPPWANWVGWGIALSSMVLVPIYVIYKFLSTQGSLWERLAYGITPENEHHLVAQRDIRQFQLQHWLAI

Sequence of 5-hydroxytryptamine receptor 2A (Homo sapiens, UniProt P28223) (P28223 whole entry): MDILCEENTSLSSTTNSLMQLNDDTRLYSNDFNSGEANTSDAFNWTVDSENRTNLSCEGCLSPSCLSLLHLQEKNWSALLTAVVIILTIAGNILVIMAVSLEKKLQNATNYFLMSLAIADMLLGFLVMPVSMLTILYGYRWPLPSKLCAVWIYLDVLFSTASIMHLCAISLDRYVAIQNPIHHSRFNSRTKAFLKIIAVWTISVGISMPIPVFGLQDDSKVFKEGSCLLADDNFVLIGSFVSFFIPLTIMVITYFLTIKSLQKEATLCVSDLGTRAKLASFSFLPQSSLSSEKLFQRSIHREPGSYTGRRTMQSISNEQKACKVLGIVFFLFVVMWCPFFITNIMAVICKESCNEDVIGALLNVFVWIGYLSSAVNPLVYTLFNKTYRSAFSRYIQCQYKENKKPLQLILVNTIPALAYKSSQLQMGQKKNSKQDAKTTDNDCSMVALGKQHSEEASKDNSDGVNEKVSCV
Sequence of 5-hydroxytryptamine receptor 2A (Homo sapiens, UniProt P28223, F340L) (P28223 whole entry F340L): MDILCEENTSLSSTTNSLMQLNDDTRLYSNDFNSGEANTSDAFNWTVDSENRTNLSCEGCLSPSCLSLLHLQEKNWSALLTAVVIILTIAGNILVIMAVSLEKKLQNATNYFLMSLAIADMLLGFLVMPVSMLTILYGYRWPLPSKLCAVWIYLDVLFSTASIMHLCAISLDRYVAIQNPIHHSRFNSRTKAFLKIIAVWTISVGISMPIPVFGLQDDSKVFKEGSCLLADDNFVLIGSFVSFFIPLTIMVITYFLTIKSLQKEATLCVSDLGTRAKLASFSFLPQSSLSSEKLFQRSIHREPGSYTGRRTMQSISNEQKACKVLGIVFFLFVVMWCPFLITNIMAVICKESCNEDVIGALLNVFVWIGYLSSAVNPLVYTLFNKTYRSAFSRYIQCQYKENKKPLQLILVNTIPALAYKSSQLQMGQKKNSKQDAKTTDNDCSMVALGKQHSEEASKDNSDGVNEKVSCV

| SMILES | Ki [1] | other results |
| --- | --- | --- |
| NCCc1ccc(CCCc2ccccc2)cc1 | 60 nM | – |
| CCCCCOc1ccc2c(c1)Cc1ccccc1C2CN (stereo not drawn) | 23 nM | – |
| CCCCCCc1cc(OC)c(CC(C)N)cc1OC (stereo not drawn) | 2.5 nM | – |
| NCC(c1ccccc1)c1ccc(Br)cc1 (stereo not drawn) | 260 nM | Ki [2]: 3.5 nM |
| NCC1c2ccccc2Cc2ccccc21 | – | Ki (D(2) dopamine receptor): > 10000 nM; Ki [3]: > 10000 nM; Ki [4]: 43 nM; Ki [5]: > 10000 nM |
| NCCc1ccc(Br)cc1 | 1770 nM | – |
| CCCCCCc1ccc(CCN)cc1 | 78 nM | – |
| NCC1c2ccccc2Cc2cc(O)ccc21 (stereo not drawn) | 107 nM | – |
| CCCCCCc1ccc(C(CN)c2ccccc2)cc1 (stereo not drawn) | 200 nM | – |
| NCC1c2ccccc2Cc2cc(CCCc3ccccc3)ccc21 (stereo not drawn) | 3.2 nM | – |
| COc1cc(CC(C)N)c(OC)cc1CCCc1ccccc1 (stereo not drawn) | 10 nM | – |
| COc1cc(CC(C)N)c(OC)cc1O (stereo not drawn) | > 50000 nM | – |
| COc1cc(OC)c(OC)cc1CC(C)N (stereo not drawn) | 1200 nM | – |
| NCC1c2ccccc2Cc2cc(Br)ccc21 (stereo not drawn) | 1.3 nM | Ki (D(2) dopamine receptor): > 10000 nM; Ki [3]: 1200 nM; Ki [4]: 3.3 nM; Ki [5]: 4490 nM; Ki [2]: 1.8 nM |
| CCCCCCc1ccc2c(c1)Cc1ccccc1C2CN (stereo not drawn) | 7 nM | Ki (D(2) dopamine receptor): 6280 nM; Ki [3]: 490 nM; Ki [4]: 62 nM; Ki [5]: 845 nM |
